Reference: article PMC10879502, “Linking ATP and allosteric sites to achieve superadditive binding with bivalent EGFR kinase inhibitors” (Communications Chemistry, 2024)

Experiments:
MST2 = biological target: T1, MST2 (Homo sapiens, UniProt Q13188); assay: KINOMEscan; assay type: binding; settings: 1 μM
T1 construct: purchased Eurofins DiscoverX Corporation

ERK1 = ERK1 (Homo sapiens, UniProt P27361); assay: KINOMEscan; assay type: binding; settings: 1 μM
[1] = biological target: RSK1(Kin.Dom.2-C-terminal) (Homo sapiens, UniProt Q15418); assay: KINOMEscan; assay type: binding; settings: 1 μM
[2] = biological target: T2, ABL1(Q252H)-nonphosphorylated (Homo sapiens, UniProt P00519, Q252H); assay: KINOMEscan; assay type: binding; settings: 1 μM
T2 construct: purchased Eurofins DiscoverX Corporation

[3] = biological target: RSK4(Kin.Dom.2-C-terminal) (Homo sapiens, UniProt Q9UK32); assay: KINOMEscan; assay type: binding; settings: 1 μM
BMPR1A = BMPR1A (Homo sapiens, UniProt P36894); assay: KINOMEscan; assay type: binding; settings: 1 μM
CAMK1 = biological target: T3, CAMK1 (Homo sapiens, UniProt Q14012); assay: KINOMEscan; assay type: binding; settings: 1 μM
T3 construct: purchased Eurofins DiscoverX Corporation (KINOMEscan)

NEK9 = NEK9 (Homo sapiens, UniProt Q8TD19); assay: KINOMEscan; assay type: binding; settings: 1 μM
[4] = tested on: HCC827 cells (exon 19 del); assay: MTT antiproliferative activity assay; assay type: cell-based, human
Protocol: Cells were dosed with inhibitors to a final DMSO 0.5% in triplicate for 37 °C for 72 h. Cellular inhibition of growth was assessed by MTT viability assay according to the manufactures protocol (OZ Biosciences). […] Ba/F3 cells were all cultured in RPMI1640 media with 10% fetal bovine serum and 1% penicillin and streptomycin. The Ba/F3 cell lines were tested negative for Mycoplasma using Mycoplasma Plus PCR Primer Set (Agilent) and were passaged and/or used for no longer than 4 weeks for all experiments. Assay reagents were purchased from MilliporeSigma (Cat# R7017-5G). Ba/F3 cells were plated and treated with increasing concentrations of inhibitors in triplicate for 72 h. Compounds were dispensed using the Tecan D300e Digital Dispenser. […] All experiments were repeated at least 3 times and values were reported as an average with standard deviation.

ABL1-phosphorylated = biological target: T4, ABL1-phosphorylated (Homo sapiens, UniProt P00519); assay: KINOMEscan; assay type: binding; settings: 1 μM
T4 construct: purchased Eurofins DiscoverX Corporation

[5] = biological target: RPS6KA4(Kin.Dom.2-C-terminal) (Homo sapiens, UniProt O75676); assay: KINOMEscan; assay type: binding; settings: 1 μM
EGFR(S752-I759del) = EGFR(S752-I759del) (Homo sapiens, UniProt P00533, DEL752-759); assay: KINOMEscan; assay type: binding; settings: 1 μM
NEK4 = biological target: T5, NEK4 (Homo sapiens, UniProt P51957); assay: KINOMEscan; assay type: binding; settings: 1 μM
T5 construct: purchased Eurofins DiscoverX Corporation

S6K1 = S6K1 (Homo sapiens, UniProt P23443); assay: KINOMEscan; assay type: binding; settings: 1 μM
DDR2 = biological target: T6, DDR2 (Homo sapiens, UniProt Q16832); assay: KINOMEscan; assay type: binding; settings: 1 μM
T6 construct: purchased Eurofins DiscoverX Corporation

FLT3(R834Q) = biological target: T7, FLT3(R834Q) (Homo sapiens, UniProt P36888, R834Q); assay: KINOMEscan; assay type: binding; settings: 1 μM
T7 construct: purchased Eurofins DiscoverX Corporation

ADCK4 = ADCK4 (Homo sapiens, UniProt Q96D53); assay: KINOMEscan; assay type: binding; settings: 1 μM
CDC2L5 = biological target: T8, CDC2L5 (Homo sapiens, UniProt Q14004); assay: KINOMEscan; assay type: binding; settings: 1 μM
T8 construct: purchased Eurofins DiscoverX Corporation (KINOMEscan)
Protocol: (§1) Figure S19 : Metabolic stability determination of 4 in human liver microsomes, compared to a negative control containing bovine serum albumin instead of liver microsomes and a positive control using verapamil instead of compound.
(§2) Table S7 : Data was obtained from KINOMEscan TM using 1 μM of compound 4 against 468 kinases. Eurofins DiscoverX Corporation (San Diego), CA 92121, USA. Results stated as percent of control (POC), where lower values are associated with lower Kd values. […]
(§3) ABL1(F317L)-nonphosphorylated 37 […]
(§4) (1 picture or pasted object on this page, not shown here)

PRP4 = PRP4 (Homo sapiens, UniProt Q13523); assay: KINOMEscan; assay type: binding; settings: 1 μM
Protocol: as §1, §2, §3, §4

CIT = CIT (Homo sapiens, UniProt O14578); assay: KINOMEscan; assay type: binding; settings: 1 μM
CSNK1G1 = biological target: T9, CSNK1G1 (Homo sapiens, UniProt Q9HCP0); assay: KINOMEscan; assay type: binding; settings: 1 μM
T9 construct: purchased Eurofins DiscoverX Corporation

[6] = biological target: T10, ABL1(H396P)-nonphosphorylated (Homo sapiens, UniProt P00519, H396P); assay: KINOMEscan; assay type: binding; settings: 1 μM
T10 construct: purchased Eurofins DiscoverX Corporation

GSK3A = biological target: T11, GSK3A (Homo sapiens, UniProt P49840); assay: KINOMEscan; assay type: binding; settings: 1 μM
T11 construct: purchased Eurofins DiscoverX Corporation

PIK3CA(E545K) = PIK3CA(E545K) (Homo sapiens, UniProt P42336, E545K); assay: KINOMEscan; assay type: binding; settings: 1 μM
CDKL5 = CDKL5 (Homo sapiens, UniProt O76039); assay: KINOMEscan; assay type: binding; settings: 1 μM
GCN2(Kin.Dom.2+S808G) = biological target: T12, GCN2(Kin.Dom.2+S808G) (Homo sapiens, UniProt Q9P2K8, S808G); assay: KINOMEscan; assay type: binding; settings: 1 μM
T12 construct: GCN2(Kin.Dom.2+S808G); purchased Eurofins DiscoverX Corporation

FES = FES (Homo sapiens, UniProt P07332); assay: KINOMEscan; assay type: binding; settings: 1 μM
EGFR(L747-E749del+A750P) = EGFR(L747-E749del+A750P) (Homo sapiens, UniProt P00533, A750P/DEL747-749); assay: KINOMEscan; assay type: binding; settings: 1 μM
SRPK1 = SRPK1 (Homo sapiens, UniProt Q96SB4); assay: KINOMEscan; assay type: binding; settings: 1 μM
AKT2 = AKT2 (Homo sapiens, UniProt P31751); assay: KINOMEscan; assay type: binding; settings: 1 μM
AURKA = AURKA (Homo sapiens, UniProt O14965); assay: KINOMEscan; assay type: binding; settings: 1 μM
RET = RET (Homo sapiens, UniProt P07949); assay: KINOMEscan; assay type: binding; settings: 1 μM
RIOK2 = RIOK2 (Homo sapiens, UniProt Q9BVS4); assay: KINOMEscan; assay type: binding; settings: 1 μM

Chain of PRP4 (Q13523 whole entry): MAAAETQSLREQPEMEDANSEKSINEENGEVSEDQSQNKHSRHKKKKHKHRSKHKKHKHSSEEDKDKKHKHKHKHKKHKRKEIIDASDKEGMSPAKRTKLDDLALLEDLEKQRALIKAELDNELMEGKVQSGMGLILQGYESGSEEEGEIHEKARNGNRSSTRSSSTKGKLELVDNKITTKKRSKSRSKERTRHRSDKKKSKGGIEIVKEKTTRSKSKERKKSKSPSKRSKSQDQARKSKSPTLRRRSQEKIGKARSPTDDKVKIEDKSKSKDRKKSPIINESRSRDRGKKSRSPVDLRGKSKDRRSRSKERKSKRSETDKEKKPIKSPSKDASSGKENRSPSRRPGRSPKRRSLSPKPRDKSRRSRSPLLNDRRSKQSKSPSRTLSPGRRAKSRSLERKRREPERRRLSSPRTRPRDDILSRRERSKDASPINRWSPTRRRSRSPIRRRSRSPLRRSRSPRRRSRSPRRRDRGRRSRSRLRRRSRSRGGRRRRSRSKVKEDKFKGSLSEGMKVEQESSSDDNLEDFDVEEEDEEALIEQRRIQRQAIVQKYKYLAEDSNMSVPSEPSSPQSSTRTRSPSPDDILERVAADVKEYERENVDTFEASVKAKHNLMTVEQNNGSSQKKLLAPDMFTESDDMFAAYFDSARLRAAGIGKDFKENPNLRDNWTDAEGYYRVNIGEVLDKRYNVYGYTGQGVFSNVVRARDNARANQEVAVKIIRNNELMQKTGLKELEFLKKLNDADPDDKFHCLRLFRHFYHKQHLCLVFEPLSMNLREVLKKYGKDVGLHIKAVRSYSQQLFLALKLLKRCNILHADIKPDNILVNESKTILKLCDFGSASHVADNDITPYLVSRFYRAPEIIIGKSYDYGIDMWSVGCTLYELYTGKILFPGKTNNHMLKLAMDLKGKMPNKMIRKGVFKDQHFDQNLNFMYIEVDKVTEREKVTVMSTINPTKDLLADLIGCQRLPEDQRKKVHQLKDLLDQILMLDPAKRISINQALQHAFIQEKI
Chain of AKT2 (P31751 whole entry): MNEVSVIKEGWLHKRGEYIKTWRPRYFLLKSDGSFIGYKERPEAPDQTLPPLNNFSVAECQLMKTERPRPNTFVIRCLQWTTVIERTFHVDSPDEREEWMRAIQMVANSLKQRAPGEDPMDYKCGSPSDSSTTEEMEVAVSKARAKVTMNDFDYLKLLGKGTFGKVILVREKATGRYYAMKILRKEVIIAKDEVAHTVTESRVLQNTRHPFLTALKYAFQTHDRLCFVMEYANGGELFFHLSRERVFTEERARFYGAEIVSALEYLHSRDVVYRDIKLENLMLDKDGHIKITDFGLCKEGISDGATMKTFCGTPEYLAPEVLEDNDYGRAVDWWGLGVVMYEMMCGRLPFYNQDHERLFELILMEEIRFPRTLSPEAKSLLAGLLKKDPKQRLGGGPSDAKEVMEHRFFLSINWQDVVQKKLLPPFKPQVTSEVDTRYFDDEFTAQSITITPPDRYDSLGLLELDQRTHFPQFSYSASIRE
Chain of S6K1 (P23443 whole entry): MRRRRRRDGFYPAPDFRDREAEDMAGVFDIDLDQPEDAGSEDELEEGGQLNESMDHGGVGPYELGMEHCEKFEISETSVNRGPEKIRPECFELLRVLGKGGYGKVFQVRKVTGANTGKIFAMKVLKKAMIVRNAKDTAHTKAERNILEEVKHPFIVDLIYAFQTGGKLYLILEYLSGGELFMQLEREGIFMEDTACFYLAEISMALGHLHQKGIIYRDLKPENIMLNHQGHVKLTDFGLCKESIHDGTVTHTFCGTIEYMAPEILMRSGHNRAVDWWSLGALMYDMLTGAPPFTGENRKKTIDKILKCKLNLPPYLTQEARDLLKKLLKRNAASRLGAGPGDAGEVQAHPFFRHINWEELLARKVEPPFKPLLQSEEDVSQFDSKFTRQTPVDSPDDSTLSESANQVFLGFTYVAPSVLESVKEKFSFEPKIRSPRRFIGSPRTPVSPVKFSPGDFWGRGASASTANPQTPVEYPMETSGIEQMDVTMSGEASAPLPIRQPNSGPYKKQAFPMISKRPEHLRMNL
Chain of RSK4(Kin.Dom.2-C-terminal) (Q9UK32 426-683 limits assumed): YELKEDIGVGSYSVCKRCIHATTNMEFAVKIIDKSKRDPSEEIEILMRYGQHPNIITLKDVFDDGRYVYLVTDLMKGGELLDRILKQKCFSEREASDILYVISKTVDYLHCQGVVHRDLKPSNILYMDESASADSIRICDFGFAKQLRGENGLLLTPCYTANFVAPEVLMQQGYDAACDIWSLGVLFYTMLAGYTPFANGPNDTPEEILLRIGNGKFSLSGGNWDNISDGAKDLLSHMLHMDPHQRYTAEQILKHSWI
Chain of ADCK4 (Q96D53 whole entry): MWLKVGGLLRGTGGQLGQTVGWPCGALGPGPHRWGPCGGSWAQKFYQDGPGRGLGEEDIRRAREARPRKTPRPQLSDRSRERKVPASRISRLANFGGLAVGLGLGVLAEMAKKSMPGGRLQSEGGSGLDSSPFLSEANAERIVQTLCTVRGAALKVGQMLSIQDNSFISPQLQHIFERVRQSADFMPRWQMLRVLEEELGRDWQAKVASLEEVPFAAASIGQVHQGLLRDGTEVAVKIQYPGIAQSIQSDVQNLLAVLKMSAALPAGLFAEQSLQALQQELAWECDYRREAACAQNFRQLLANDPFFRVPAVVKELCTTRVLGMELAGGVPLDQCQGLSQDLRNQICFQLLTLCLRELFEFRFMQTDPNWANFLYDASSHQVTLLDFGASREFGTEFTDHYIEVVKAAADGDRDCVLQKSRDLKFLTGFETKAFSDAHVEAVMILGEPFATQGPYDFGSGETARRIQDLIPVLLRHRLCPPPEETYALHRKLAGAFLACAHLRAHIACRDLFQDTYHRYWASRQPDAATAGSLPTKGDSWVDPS
T6 sequence (Q16832 22-855): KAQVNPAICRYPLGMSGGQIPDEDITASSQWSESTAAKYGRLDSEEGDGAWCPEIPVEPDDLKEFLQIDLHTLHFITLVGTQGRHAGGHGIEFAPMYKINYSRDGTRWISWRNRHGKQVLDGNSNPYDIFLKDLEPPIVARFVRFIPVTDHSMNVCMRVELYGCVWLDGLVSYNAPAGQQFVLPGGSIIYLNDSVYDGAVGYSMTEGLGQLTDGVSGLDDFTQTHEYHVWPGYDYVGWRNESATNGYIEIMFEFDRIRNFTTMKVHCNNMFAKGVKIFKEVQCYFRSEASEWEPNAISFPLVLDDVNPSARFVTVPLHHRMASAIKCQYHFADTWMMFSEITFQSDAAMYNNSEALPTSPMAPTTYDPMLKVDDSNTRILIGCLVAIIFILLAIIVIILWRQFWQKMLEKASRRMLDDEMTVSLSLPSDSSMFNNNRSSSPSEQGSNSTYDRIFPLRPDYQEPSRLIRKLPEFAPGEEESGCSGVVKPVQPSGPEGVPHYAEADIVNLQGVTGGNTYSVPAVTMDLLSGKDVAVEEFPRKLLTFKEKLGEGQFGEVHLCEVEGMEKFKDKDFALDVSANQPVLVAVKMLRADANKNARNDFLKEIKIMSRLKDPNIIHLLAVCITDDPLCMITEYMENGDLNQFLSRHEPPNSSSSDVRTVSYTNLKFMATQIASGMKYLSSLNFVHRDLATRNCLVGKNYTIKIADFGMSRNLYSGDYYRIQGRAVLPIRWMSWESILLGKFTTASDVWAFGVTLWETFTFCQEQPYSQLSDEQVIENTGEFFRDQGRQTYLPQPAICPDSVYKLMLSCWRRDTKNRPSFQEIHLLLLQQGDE
Chain of RET (P07949 29-1114): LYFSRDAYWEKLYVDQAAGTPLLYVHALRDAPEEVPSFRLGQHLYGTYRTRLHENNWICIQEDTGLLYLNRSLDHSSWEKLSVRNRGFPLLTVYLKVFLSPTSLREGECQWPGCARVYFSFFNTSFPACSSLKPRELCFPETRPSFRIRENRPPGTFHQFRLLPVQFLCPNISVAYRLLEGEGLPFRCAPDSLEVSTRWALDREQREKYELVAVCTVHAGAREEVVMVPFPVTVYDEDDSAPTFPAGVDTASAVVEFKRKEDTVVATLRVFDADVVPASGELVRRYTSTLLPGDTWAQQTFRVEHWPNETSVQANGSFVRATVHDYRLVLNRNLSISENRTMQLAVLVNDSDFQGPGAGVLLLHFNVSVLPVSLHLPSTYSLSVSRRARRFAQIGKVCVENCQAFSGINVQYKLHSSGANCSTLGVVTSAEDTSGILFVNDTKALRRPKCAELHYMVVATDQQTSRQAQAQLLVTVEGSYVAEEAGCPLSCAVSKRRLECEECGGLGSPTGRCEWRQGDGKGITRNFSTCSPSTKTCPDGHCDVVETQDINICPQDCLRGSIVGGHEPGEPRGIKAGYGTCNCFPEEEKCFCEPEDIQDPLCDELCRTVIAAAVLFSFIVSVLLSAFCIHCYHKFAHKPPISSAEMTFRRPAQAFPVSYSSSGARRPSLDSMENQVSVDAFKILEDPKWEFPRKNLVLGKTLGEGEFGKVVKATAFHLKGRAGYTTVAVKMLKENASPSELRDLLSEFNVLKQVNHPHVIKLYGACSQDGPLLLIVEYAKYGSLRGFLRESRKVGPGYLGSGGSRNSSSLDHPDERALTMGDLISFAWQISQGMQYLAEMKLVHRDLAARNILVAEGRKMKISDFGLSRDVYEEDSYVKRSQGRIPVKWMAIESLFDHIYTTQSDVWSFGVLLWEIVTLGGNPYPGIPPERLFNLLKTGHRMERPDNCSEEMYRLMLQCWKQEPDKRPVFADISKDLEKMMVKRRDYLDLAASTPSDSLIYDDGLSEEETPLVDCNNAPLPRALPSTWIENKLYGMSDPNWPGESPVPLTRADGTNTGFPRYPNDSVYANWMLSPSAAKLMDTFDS
Chain of RPS6KA4(Kin.Dom.2-C-terminal) (O75676 411-674 limits assumed): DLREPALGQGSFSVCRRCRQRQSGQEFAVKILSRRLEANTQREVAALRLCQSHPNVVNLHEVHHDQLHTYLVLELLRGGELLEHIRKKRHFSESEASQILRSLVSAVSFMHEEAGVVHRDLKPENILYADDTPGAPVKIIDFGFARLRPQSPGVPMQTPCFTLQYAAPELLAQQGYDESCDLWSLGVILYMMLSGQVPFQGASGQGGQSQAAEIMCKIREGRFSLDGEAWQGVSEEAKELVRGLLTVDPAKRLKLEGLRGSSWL

For C=CC(=O)Nc1ccc(OC)c(Nc2cc(-c3[nH]c(CC)nc3-c3cccc(NC(=O)c4cccc5c4NC(=O)c4ccccc4N5)c3)ccn2)c1 [Compound 4], which POC (MST2) is on record?
Its POC is 14% of control.

What about the POC (ERK1) of the same compound?
The POC was 99% of control.

And the POC [1]?
The POC was 75% of control.

What about the POC [2] of the same compound?
Its POC is 100% of control.

What about the POC [3] of the same compound?
Its POC is 80% of control.

And the POC (BMPR1A)?
The POC was 85% of control.

And the POC (CAMK1)?
The POC was 81% of control.

And the POC (NEK9)?
The POC was 83% of control.

And the “less potent than AZD9291” value ([4]; HCC827)?
Its value is ~ 60 fold.

What about the antiproliferative active concentration ([4]; HCC827, text) of the same compound?
The antiproliferative active concentration was 100 to 500 nM.

What about the POC (ABL1-phosphorylated) of the same compound?
Its POC is 80% of control.

And the POC [5]?
Its POC is 75% of control.

What about the POC (EGFR(S752-I759del)) of the same compound?
The POC was 6% of control.

What about the POC (NEK4) of the same compound?
The POC was 100% of control.

And the POC (S6K1)?
Its POC is 100% of control.

And the POC (DDR2)?
The POC was 100% of control.

And the POC (FLT3(R834Q))?
The POC was 100% of control.

And the POC (ADCK4)?
Its POC is 85% of control.

What about the POC (CDC2L5) of the same compound?
The POC was 74% of control.

And the POC (PRP4)?
The POC was 46% of control.

And the POC (CIT)?
The POC was 6.3% of control.

What about the POC (CSNK1G1) of the same compound?
The POC was 93% of control.

And the POC [6]?
Its POC is 97% of control.

What about the POC (GSK3A) of the same compound?
Its POC is 65% of control.

What about the POC (PIK3CA(E545K)) of the same compound?
The POC was 100% of control.

And the POC (CDKL5)?
Its POC is 98% of control.

And the POC (GCN2(Kin.Dom.2+S808G))?
Its POC is 100% of control.

What about the POC (FES) of the same compound?
Its POC is 28% of control.

What about the POC (EGFR(L747-E749del+A750P)) of the same compound?
Its POC is 8% of control.

What about the POC (SRPK1) of the same compound?
The POC was 100% of control.

What about the POC (AKT2) of the same compound?
Its POC is 91% of control.

And the POC (AURKA)?
Its POC is 90% of control.

What about the POC (RET) of the same compound?
The POC was 99% of control.

What about the POC (RIOK2) of the same compound?
The POC was 83% of control.
